We go through 27 compounds from PubChem BioAssay AID1259408 (Genetic Toxicology Data Bank (GENE-TOX), 2018).

Calls of active or inactive are those of the source. No rule for the calls is given here.

The data set has as its system GENE-TOX genotoxicity assays, various organisms and cells. Briefly: GENE-TOX mutagenicity studies. The following applies: for call: Assay Type: In vivo carcinogenicity studies.
Setting [1] is: Species/Cell Type: Salmonella typhimurium (one or more of the five standard strains: TA98, TA100, TA1535, TA1537, and TA1538), Assay Type: Histidine reverse gene mutation, Ames assay, Assay Code: SAL+, Evaluation Type: Evaluation A (Pre-1980).
Where [2] appears, read: Species/Cell Type: Bacillus subtilis (H17 vs M45), Assay Type: Rec-assay, spot test, DNA effects (bacterial DNA repair), Assay Code: REWT, Evaluation Type: Evaluation A (Pre-1980).
Setting [3] is: Species/Cell Type: Chinese hamster lung (V79) cells, Assay Type: Forward gene mutation at the HPRT or ouabain locus, Assay Code: V79+, Evaluation Type: Evaluation A (Pre-1980).
The mark [4] stands for this setting: Species/Cell Type: Salmonella typhimurium (one or more of the five standard strains: TA98, TA100, TA1535, TA1537, and TA1538), Assay Type: Histidine reverse gene mutation, Ames assay, Assay Code: SAL+*, Activation: With metabolic activation, Evaluation Type: Evaluation A (Pre-1980).
The mark [5] stands for this setting: Species/Cell Type: Mammalian polychromatic erythrocytes, Assay Type: Micronucleus test, chromosome aberrations, Assay Code: MNT+, Evaluation Type: Evaluation B (Post-1980).
The mark [6] stands for this setting: Species/Cell Type: Mammalian polychromatic erythrocytes, Assay Type: Micronucleus test, chromosome aberrations, Assay Code: MNTT, Evaluation Type: Evaluation B (Post-1980).
[7] abbreviates: Species/Cell Type: Nonhuman, Assay Code: CCG+L, Evaluation Type: Evaluation A (Pre-1980).
Setting [8] is: Species/Cell Type: Drosophila melanogaster, Assay Type: Sex-linked recessive lethal gene mutation, Assay Code: SRL+, Evaluation Type: Evaluation A (Pre-1980).
The mark [9] stands for this setting: Species/Cell Type: Human lymphocytes, Assay Type: Sister-chromatid exchange (SCE) in vitro, Assay Code: SCL+D, Dose Response: With dose response, Evaluation Type: Evaluation B (Post-1980).
Where [10] appears, read: Species/Cell Type: Human, Assay Type: Sister-chromatid exchange (SCE) in vitro, Assay Code: SC1+D, Dose Response: With dose response, Evaluation Type: Evaluation B (Post-1980).

Regarding `CC/C(=C(\c1ccccc1)c1ccc(OCCN(C)C)cc1)c1ccccc1`, the mutagenic call (Species/Cell Type: Human, Sex: Male, Assay Type: Sperm morphology, Assay Code: SPHT, Evaluation Type: Evaluation A (Pre-1980)) was “no conclusion”.

As for `O=S1(=O)OCCO1`, the mutagenic call is, setting by setting: under setting [1], “active; positive”; (Species/Cell Type: Salmonella typhimurium, Assay Type: Forward and reverse gene mutation, host-mediated assay, Assay Code: HMA+, Evaluation Type: Evaluation A (Pre-1980)) “active; positive”.

Consider `O=C1c2ccccc2C(=O)C1c1ccc2cc(S(=O)(=O)O)cc(S(=O)(=O)O)c2n1`, for which the mutagenic call under setting [2] is on record as “no conclusion”.

As to `O[C@@H]1[C@@H]2O[C@@H]2c2cc3c(ccc4ccccc43)cc2[C@H]1O`, the mutagenic call is, setting by setting: under setting [3], “active; positive”; under setting [1], “active; positive”.

As for `O=C1c2ccccc2C(=O)c2c1ccc(O[C@@H]1O[C@H](CO)[C@@H](O)[C@H](O)[C@H]1O)c2O`, the mutagenic call under setting [4] is “active; positive”.

On to `NNc1ccccc1`, for which the mutagenic call under setting [5] is “active; positive”.

For `COc1cccc(C2CO2)c1` (centres undefined), the mutagenic call (Species/Cell Type: Escherichia coli WP2 UVRA, Assay Type: Tryptophan reverse gene mutation, Assay Code: WPU-, Evaluation Type: Evaluation A (Pre-1980)) is “inactive; negative”.

In the case of `CC(C)(C#N)Nc1nc(Cl)nc(NC2CC2)n1`, the mutagenic call (Species/Cell Type: Zea mays (corn), Assay Type: Gene mutation, Assay Code: ZEM-, Evaluation Type: Evaluation A (Pre-1980)) was “inactive; negative”.

As to `O=[N+]([O-])c1ccc(N=Nc2c(O)ccc3ccccc23)c(Cl)c1`, the mutagenic call under setting [4] is “active; positive”.

For `Cc1ccccc1C`, the mutagenic call under setting [6] is given as “no conclusion”.

Regarding `Nc1nc(N)c2nc(CNc3ccc(C(=O)N[C@@H](CCC(=O)O)C(=O)O)cc3)cnc2n1`, the mutagenic call is, setting by setting: (Species/Cell Type: Mammalian polychromatic erythrocytes, Assay Type: Micronucleus test, chromosome aberrations, Assay Code: MNT+, Evaluation Type: Evaluation A (Pre-1980)) “active; positive”; (Species/Cell Type: Mouse, Sex: Male, Assay Type: Sperm morphology, Assay Code: SPI+, Evaluation Type: Evaluation A (Pre-1980)) “active; positive”; (Species/Cell Type: Neurospora crassa, Assay Type: Aneuploidy, chromosome aberrations, Assay Code: NEN-, Evaluation Type: Evaluation A (Pre-1980)) “inactive; negative”; (Species/Cell Type: Saccharomyces cerevisiae, Assay Type: Mitotic recombination or gene conversion, Assay Code: YEH+, Evaluation Type: Evaluation A (Pre-1980)) “active; positive”.

`Cc1c2ccccc2c(C)c2c3c(ccc12)[C@H](O)[C@@H](O)C=C3`: the mutagenic call is “active; positive” under setting [3] and “active; positive” (Species/Cell Type: Mouse prostate cells, Assay Type: Cell transformation, Assay Code: CTM+, Evaluation Type: Evaluation A (Pre-1980)). The call under setting [7] was “active; positive”.

As for `Cc1ccc2ccc3c4c(ccc3c2c1)C(=O)CC4`, where the note is “Species/Cell Type: Salmonella typhimurium (one or more of the five standard strains: TA98, TA100, TA1535, TA1537, and TA1538), Assay Type: Histidine reverse gene mutation, Ames assay, Assay Code: SALT, Evaluation Type: Evaluation A (Pre-1980)”, the mutagenic call is “no conclusion”.

For `COc1ccc(C)cc1N`, the call (Species/Cell Type: Nonhuman, Assay Code: CCG+, Evaluation Type: Evaluation A (Pre-1980)) was “active; positive”.

Regarding `C=Cc1ccccc1`, the mutagenic call was “inactive; negative” (Species/Cell Type: Chinese hamster lung (V79) cells, Assay Type: Forward gene mutation at the HPRT or ouabain locus, Assay Code: V79-, Evaluation Type: Evaluation A (Pre-1980)); “active; positive” under setting [8]; “inactive; negative” (Species/Cell Type: Human diploid fibroblasts, Assay Type: Unscheduled DNA synthesis (UDS) in vitro, DNA effects, Assay Code: UDH-*, Activation: With metabolic activation, Evaluation Type: Evaluation A (Pre-1980)); “active; positive” (Species/Cell Type: Human lymphocytes or leukocytes, Assay Type: Chromosome aberrations in vivo, Assay Code: CY8+, Evaluation Type: Evaluation A (Pre-1980)); “active; positive” (Species/Cell Type: Human lymphocytes, Assay Type: Micronucleus test in vitro, chromosome aberrations, Assay Code: MN7+, Evaluation Type: Evaluation A (Pre-1980)); “active; positive” under setting [9]. The mutagenic call was “active; positive” (Species/Cell Type: Human lymphocytes, Assay Type: Sister-chromatid exchange (SCE) in vivo, Assay Code: SCY+, Evaluation Type: Evaluation B (Post-1980)); “active; positive” under setting [10]; “active; positive” under setting [5]; “active; positive” (Species/Cell Type: Nonhuman, Assay Type: Sister-chromatid exchange (SCE) in vivo, Assay Code: SC3+D, Dose Response: With dose response, Evaluation Type: Evaluation B (Post-1980)); “active; positive” (Species/Cell Type: Plant, Assay Type: Micronucleus test, chromosome aberrations, Assay Code: MNP+, Evaluation Type: Evaluation A (Pre-1980)); “active; positive” (Species/Cell Type: Saccharomyces cerevisiae, Assay Type: Forward and reverse gene mutation, mitotic recombination and gene conversion, host-mediated assay, Assay Code: HME+, Evaluation Type: Evaluation A (Pre-1980)). Further, the mutagenic call (Species/Cell Type: Saccharomyces cerevisiae, Assay Type: Mitotic recombination or gene conversion, Assay Code: YEC+*, Activation: With metabolic activation, Evaluation Type: Evaluation A (Pre-1980)) is “active; positive”; the mutagenic call under setting [4] was “active; positive”; the mutagenic call (Species/Cell Type: Schizosaccharomyces pombe, Assay Type: Forward gene mutation, Assay Code: YEYT, Evaluation Type: Evaluation A (Pre-1980)) is on record as “no conclusion”; the mutagenic call (Species/Cell Type: Syrian hamster embryo (SA7/SHE) cells, Assay Type: Cell transformation, viral enhanced, Assay Code: CT7-, Evaluation Type: Evaluation A (Pre-1980)) was “inactive; negative”. Under setting [7], the call was “active; positive”.

As for `C#Cc1cn([C@H]2C[C@H](O)[C@@H](CO)O2)c(=O)[nH]c1=O`, the mutagenic call was “active; positive” (Species/Cell Type: Human lymphocytes, Assay Type: Sister-chromatid exchange (SCE) in vitro, Assay Code: SCL+, Evaluation Type: Evaluation B (Post-1980)) and “active; positive” (Species/Cell Type: Human, Assay Type: Sister-chromatid exchange (SCE) in vitro, Assay Code: SC1+, Evaluation Type: Evaluation B (Post-1980)).

Take `NP(=S)(N1CC1)N1CC1`: the mutagenic call is, setting by setting: under setting [9], “active; positive”; under setting [10], “active; positive”; (Species/Cell Type: Nonhuman, Assay Type: Sister-chromatid exchange (SCE) in vitro, Assay Code: SC2+D, Dose Response: With dose response, Evaluation Type: Evaluation B (Post-1980)) “active; positive”.

As for `O=C(NCCCCCCCCNC(=O)C(Cl)Cl)C(Cl)Cl`, the mutagenic call (Species/Cell Type: Human, Sex: Male, Assay Type: Sperm morphology, Assay Code: SPH+, Evaluation Type: Evaluation A (Pre-1980)) is “active; positive”.

Take `Cn1cncc1[N+](=O)[O-]`: under setting [1], the mutagenic call is “active; positive”.

For `COc1cc([C@@H]2c3cc4c(cc3[C@@H](O[C@@H]3O[C@H](CO)[C@@H](O)[C@H](O)[C@H]3O)[C@H]3COC(=O)[C@H]23)OCO4)cc(OC)c1O`, the mutagenic call (Species/Cell Type: Chinese hamster ovary (CHO) cells, Assay Type: Forward gene mutation at the HPRT locus, Assay Code: CHO+, Evaluation Type: Evaluation B (Post-1980)) was “active; positive”.

With `CCS(=O)(=O)OC`, the mutagenic call is “active; positive” (Species/Cell Type: Glycine max (soybean), Assay Type: Gene mutation, Assay Code: GLM+, Evaluation Type: Evaluation A (Pre-1980)); “active; positive” (Species/Cell Type: Hordeum vulgare (barley), Assay Type: Chromosome aberrations, Assay Code: HOC+, Evaluation Type: Evaluation A (Pre-1980)); “active; positive” (Species/Cell Type: Hordeum vulgare (barley), Assay Type: Gene mutation, Assay Code: HOM+D, Dose Response: With dose response, Evaluation Type: Evaluation A (Pre-1980)); “no conclusion” (Species/Cell Type: Rabbit, Sex: Male, Assay Type: Sperm morphology, Assay Code: SPRT, Evaluation Type: Evaluation A (Pre-1980)).

For `ClCc1cccnc1`, the mutagenic call runs as follows: (Species/Cell Type: Fischer rat embryo (RLV/1706) cells, Assay Type: Cell transformation, viral enhanced, Assay Code: CTR+, Evaluation Type: Evaluation A (Pre-1980)) “active; positive”; (Species/Cell Type: Mouse (BALB/c-3T3) cells, Assay Type: Cell transformation, Assay Code: CTB-, Evaluation Type: Evaluation A (Pre-1980)) “inactive; negative”. Also, under setting [7], the call was “active; positive”.

Take `Cc1ccc2c(ccc3c4ccccc4ccc23)c1`: the mutagenic call under setting [4] was “active; positive”.

`O=S(=O)(O)c1cc(S(=O)(=O)O)c2c(N=Nc3ccccc3)c(O)ccc2c1`: under setting [2], the mutagenic call was “no conclusion”.

For the compound `O=C1NC(=O)C(c2ccc(O)cc2)(c2ccc(O)cc2)N1`, under setting [6], the mutagenic call was “no conclusion”.

Consider `CCN(CC)c1ccc2cc3ccc(=[N+](CC)CC)cc-3oc2c1`, for which the mutagenic call under setting [8] was “active; positive”.

Turning to `CCCCNC(N)=O`, the mutagenic call (Species/Cell Type: Nonhuman, Assay Type: Chromosome aberrations in vitro, Assay Code: CY&-, Evaluation Type: Evaluation A (Pre-1980)) was “inactive; negative” and the mutagenic call (Species/Cell Type: Nonhuman, Assay Type: Sister-chromatid exchange (SCE) in vitro, Assay Code: SC2+, Evaluation Type: Evaluation A (Pre-1980)) is “active; positive”.
